These results are taken from patent US12109253B2, “Use of IGFBP7 for treating malaria” (AGENCY FOR SCIENCE, TECHNOLOGY AND RESEARCH, priority 2019, dated 2024).

Assay [1] relates to cytoadhesive properties of infected erythrocytes. Conditions: adjunct treatment candidate, phase II clinical trial; cited from earlier work.
The subject of another assay is P. falciparum. Description: Rosetting assay (percentage of IRBC that form rosettes), P. falciparum. It counts as cell-based, Plasmodium falciparum. To be noted: for effect on rosetting rates of TSP-1 and VWF without IGFBP7: Albumax-supplemented medium, TSP-1 and VWF present together. The protocol:
Rosetting assay was conducted when 70% of the parasite population reached late stages (late trophozoites and schizonts) unless stated otherwise. The parasite culture suspension was stained subvitally with Giemsa (5% stain working concentration) for 20 minutes. Subsequently, 7.6 μl stained suspension was pipetted onto a clean glass slide, immediately covered with a 22×32 mm glass cover slip. The wet mount was examined with light microscope using 1000× magnification. Rosetting rate (percentage of rosetting IRBCs) was defined as the percentage of IRBC (over 200 recruited IRBC) that form rosettes. Experiments were conducted in blinded manner.
Following data review, coupled with critical information (i.e. the protein's subcellular location and cellular functions) from UNIPROT, candidates were shortlisted for further validation. The parasite culture suspensions were incubated with CSMT and antibodies against the shortlisted proteins (see Table 6, items 35, 37, 39-41) and tested in rosetting assay at a final concentration of 25 μg/ml.
The parasite culture suspension was divided into three groups, one served as control, the second group was added with recombinant human IGFBP7 (final concentration 100 ng/ml), and the third group was mixed with CSMT (CSMT:parasite culture=1:3). After one hour of incubation under in vitro cultivation conditions, rosetting assay was conducted. Separately, a portion of the IGFBP7 suspension was heat-denatured at 95° C. for one hour, prior to use in rosetting assay.
Parasite cultures were incubated with IGFBP7 (working concentrations 0-25,000 ng/ml) prior to rosetting assay. Time course experiments were performed with laboratory-adapted P. falciparum lines (3D7, MKK183, FVT402, FVT201, WPP3065) incubated with IGFBP7 (100 ng/ml). Rosetting assay was conducted after five minutes, using 7 μl of the suspension. The remaining suspension was kept back into the incubator. Rosetting assay was repeated at five minute-intervals until one hour-post-IGFBP7 exposure. Reversibility of IGFBP7-mediated rosette-stimulation was also tested. Parasite lines (3D7, MKK183, FVT402, FVT201, WPP3065) were incubated with IGFBP7 (100 ng/ml) and rosetting assay was conducted with 7 μl of the suspension. The remaining suspension was centrifuged at 1500 g for five minutes. Supernatant was removed, and the pellet was washed thrice with culture medium, followed by re-suspension with culture medium. Five minutes later, 7 μl of the suspension was taken for rosetting assay, subsequently repeated at five minute-intervals up to one-hour post-IGFBP7 removal.
Magnetic activated cell sorter (MACS)-sorted late stage-IRBC (purity 95%) were trypsinized at different working concentrations. The first group was mixed with enzyme trypsin (final trypsin concentration of 10 μg/ml), and the second was mixed with enzyme trypsin (final trypsin concentration of 1 mg/ml). The third served as untreated control. The cells were incubated at 37° C. for 30 minutes. After that, the cells were washed with serum-enriched medium for three times. Each group was incubated with or without IGFBP7 (100 ng/ml) prior to rosetting assay. P. falciparum line CS2 deficient of SBP1 [(SBP1-KO-CS2), which lacks P. falciparum erythrocyte membrane protein 1 (PFEMP1) on its IRBC surface] and its wild type (CS2-WT) counterpart were cultured as described. Their rosetting rates post-incubation with IGFBP7 at different concentrations were determined. P. falciparum clones NF54 VAR2CSA_WT and NF54_T934D (cannot express PfEMP1 variant VAR2CSA on IRBC surface^32) were cultivated. Experiments were conducted when parasite population reached late stages. For each parasite line, two conditions were applied; one was incubated with IGFBP7 (100 ng/ml) whereas the other one acted as IGFBP7-free control. Rosetting assay was conducted afterwards. Five replicates were conducted for each experiment setting. […]

The mark [2] stands for this setting: Albumax-supplemented medium with IGFBP7 100 ng/ml and TSP-1 10 ng/ml.

Regarding Curdlan sulfate, the “effect on pathology of patients” value in assay [1] is given as “reduce the severe pathology development”.

In the case of “TSP-1: rhTSP-1 (thrombospondin-1), serum co-factor of IGFBP7-mediated rosetting”, the “effect on rosetting rates of TSP-1 and VWF without IGFBP7” value with P. falciparum is “could not increase the rosetting rates”. Moreover, the “TSP-1 concentration enough to optimally facilitate IGFBP7-mediated rosette-stimulation” value in the assay on P. falciparum (serum-free (Albumax-supplemented medium), IGFBP7 100 ng/ml, with VWF) stood at 10 ng/mL.

With “VWF: Recombinant human VWF (rhVWF), serum co-factor of IGFBP7-mediated rosetting”, in the assay on P. falciparum (setting [2]), the “VWF concentration at which optimal increment attained” value was found to be 0.5 IU/ml and the “VWF concentration sufficient to significantly increase rosetting rates” value turned out to be 0.125 IU/ml. Further, the “effect on rosetting rates of TSP-1 and VWF without IGFBP7” value in the assay with P. falciparum was “could not increase the rosetting rates”. Further, the “effect of VWF by itself on rosetting” value in the assay on P. falciparum (VWF 1 IU/ml, no IGFBP7, 20% and 2% serum medium) was “did not stimulate rosetting”.
